Key:
[1] = Pharmacokinetic study in mice; assay type: in vivo, CD1 mice
[2] = test system: CT-26 syngeneic colon cancer; experiment: In vivo efficacy on CT-26 syngeneic colon cancer mice model; parameters: species or system Balb/c mice; conditions: PO, TID; for Decrease in tumor volume: by day 22
Experimental: CT-26 syngeneic model of colon cancer in BALB/c is an established model and has been reported widely in literature for screening of compounds in efficacy studies for immune-oncology therapeutics.
CT-26 Cell line expansion and sub-culturing: CT26 (CT26·WT, ATCC® CRL-2638) is an N-nitroso-N-methylurethane-(NNMU) induced, undifferentiated colon carcinoma cell line derived from Mus musculus, mouse colon tissue. Cells were cultured using standard techniques in RPMI 1640 with 10% FBS and 1× penicillin—streptomycin solution at 37° C. with 5% CO2 in a suitable incubator. Cell density was determined using a hemocytometer upon harvest and the cells were prepared in 100 μL of cold PBS in a microfuge tube and kept on ice until use for inoculations.
Mice: All animal studies were conducted in accordance with an Institutional Animal Care and Use Committee. 6- to 8-week-old Balb/c mice were typically housed in sterilized suspended standard, polysulfone cages, with stainless steel top grills having facilities for holding pelleted food and drinking water in polycarbonate bottles with stainless steel sipper tubes and environment enrichment objects in the vivarium for two weeks prior to tumor cell injection. The same conditions were maintained throughout the subsequent tumor engraftment and treatment evaluation.
Tumor engraftment: All animals were inoculated with 5×10^5/mouse in 100 μL subcutaneously in the lower right flank. Tumor growth was monitored twice a week from Day 4 onwards using a calibrated digital vernier caliper and the tumor volume calculated using the formula, tumor volume (mm3)=length×(width) 2/2. Once tumor volume reaches 100±50 mm^3 on Day 12, all animals were randomized into respective treatment groups as per study plan. See Table 1 for details regarding the setup and dosing of animals. Tumor volume at the time of randomization was 90 mm^3 There was no statistical significance in tumor volume at the time of treatment initiation. Post randomization, animals were treated with the test substance for 21 days. The average tumor volume/size in the treatment group allowed to reach up to 2500 mm^3, beyond this tumor size the animals to be sacrificed humanely as per general guidelines.
Formulation and administration: Formulations were prepared with the components listed in Table 11 every day and mixed well before dosing each time and administered orally. The anti PD-1 antibody was administered via the intraperitoneal route.
Data is represented as Mean±SEM n=4-10, *p<0.05 Vs Vehicle, One-Way ANOVA followed by Dunnett's multiple comparison test. […] Significant decrease in tumor volume was observed on Day 18 and Day 22 compared to vehicle treatment.

A2B receptor = target: T1, A2B receptor (Homo sapiens, UniProt P29275); experiment: A2bR antagonism IC50, cAMP TR-FRET (Lance Ultra) in HEK-293 cells, NECA as agonist; assay type: cell-based; parameters: host or cells: HEK-293; conditions: HEK-293 cells expressing A2B receptor; agonist NECA 30 nM (EC90); inhibition of cAMP
T1 sequence (P29275 1-332): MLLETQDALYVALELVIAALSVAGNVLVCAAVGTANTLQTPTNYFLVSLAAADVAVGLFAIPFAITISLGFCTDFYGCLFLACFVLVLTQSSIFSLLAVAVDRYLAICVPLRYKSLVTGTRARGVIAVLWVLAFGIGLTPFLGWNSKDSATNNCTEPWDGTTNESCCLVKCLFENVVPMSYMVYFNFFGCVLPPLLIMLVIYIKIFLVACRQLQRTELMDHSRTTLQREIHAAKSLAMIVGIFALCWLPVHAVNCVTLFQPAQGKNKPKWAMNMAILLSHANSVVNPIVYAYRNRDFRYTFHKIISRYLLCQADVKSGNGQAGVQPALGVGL
Source text: Adenosine A2A receptors and Adenosine A2B receptors induce the production of cAMP when activated/stimulated by an agonist like adenosine or 5′-(N-Ethylcarboxamido) adenosine (NECA). A Time-Resolved Fluorescence Energy Transfer (TR-FRET) assay was used to show the inhibition of this cAMP production in HEK cells upon treatment with compounds of the Formula I of the present disclosure.
HEK-293 cells expressing A2A receptor (#ES-011-C) or A2B receptor (#ES 013-C) were obtained from PerkinElmer. Cells were maintained in DMEM medium supplemented with 10% FBS and 200 μg/mL of G418 at 37° C. and 5% CO2. The cells were cultured in antibiotic free medium for a period of 16-20 hours prior to the assay. All subsequent steps of the assay are performed at room temperature (22-24° C.). The cells were harvested at about 80% confluency by gentle flushing with PBS, recovered by centrifugation and resuspended in stimulation buffer at the concentration of 5.0×10^6 cells/mL.
The assays were conducted in a stimulation buffer containing 1×DMEM, 5 mM HEPES, 0.1% BSA stabilizer and 20-30 μM Rolipram. Serial dilutions of compounds were made in stimulation buffer to achieve a final concentration of high micromolar (10 μM to 0.08 nM) in the reaction volume of 10 μL. The total reaction volume was 10 μL (5 μL of cells, 2.5 μL of antagonist and 2.5 μL of agonist). The stimulation was ended, and the reaction completed by adding 5 μL of 4× Eu-cAMP tracer working solution and 5 μL of 4× ULight-anti-cAMP working solution. The TR-FRET signal was measured after 1-hour incubation using a Tecan M1000 reader.

Granzyme B = experiment: Biomarker (Granzyme-B) FACS analysis in tumour samples from the efficacy study; assay type: in vivo, Balb/c mice; conditions: 30 mg/kg TID, Day 22, vs vehicle and anti-PD1 antibody groups
Experimental: On Day 22, the animals from the efficacy study above were euthanized by overdose of gaseous anaesthesia and tumor samples were collected and their weights were recorded before evaluating for Granzyme-B by FACs analysis.
Approximately 100 mg of tissue samples were homogenized, and the single cell suspensions were fixed and permeabilized using Miltenyi Biotec and BD kit-based reagents before staining with anti-Granzyme-B antibodies. Cells were subjected to FACS analysis while using isotype controls to ensure the specific binding of antibody and unstained cells as a negative control. The result obtained were analyzed using Flow Jo software and represented in FIG. 2.

Structure (SMILES) | Exposure after subcutaneous (SC) dose relative to oral route [1] | Cmax ([1]; CD1, mouse, plasma, sc, 10 mg/kg, s.c, 10 mg/kg, read-out: Cmax (head Co*/)) | Tmax ([1]; CD1, mouse, plasma, sc, 10 mg/kg, s.c, 10 mg/kg, read-out: Tmax (head Tma)) | Change in tumor volume ([2]; 1 mg/kg, vs vehicle) | Decrease in tumor volume ([2]; 3 mg/kg) | Decrease in tumor volume ([2]; 10 mg/kg) | Decrease in tumor volume ([2]; 30 mg/kg) | IC50 (A2B receptor) | Tumor Granzyme B expression (Granzyme B)
Cc1cccc(CCNc2nc3c(C)c(C)nn3c(N)c2C#N)n1 [Example 13, 7-amino-5-((2-(6-methylpyridin-2-yl)ethyl)amino)-2,3-dimethylpyrazolo[1,5-a]pyrimidine-6-carbonitrile] | 32 × | 1350 ng/mL | 30 min | did not show significant change in tumor volume | 35% | 35% | 48% | 3.4 nM | significant increase
CCc1c(C)nn2c(N)c(C#N)c(NCCc3ccn(C4(CO)CC4)n3)nc12 [Example 39, 7-amino-3-ethyl-5-((2-(1-(1-(hydroxymethyl)cyclopropyl)-1H-pyrazol-3-yl)ethyl)amino)-2-methylpyrazolo[1,5-a] pyrimidine-6-carbonitrile] |  |  |  |  |  |  |  | 0.94 nM | 

— patent US12577247B2 (BUGWORKS RESEARCH, INC., priority 2021, dated 2026)
